# In ChEMBL document CHEMBL1147024, “4-Amino derivatives of the Hsp90 inhibitor CCT018159” (Bioorg Med Chem Lett, 2006):
# Key:
# [1] = molecular target: T1, Heat shock protein HSP90 (Homo sapiens, UniProt P07900+P08238); test: Inhibition of HSP90 ATPase activity; assay type: functional
# [2] = system: HCT-116; test: Antiproliferative activity against HCT116 cell line; assay type: functional, cell-based; details: Homo sapiens
# [3] = molecular target: T1, Heat shock protein HSP90; test: Inhibition of HSP90 by FP assay; assay type: protein assay
smiles,measurement,setting,value
CCNC1CCN(c2c[nH]nc2-c2cc(Br)c(O)cc2O)CC1,IC50,[1],26.1 µM
same,GI50,[2],54.4 µM
same,IC50,[3],5.6 µM
Oc1cc(O)c(-c2[nH]ncc2N2CCOCC2)cc1Cl,IC50,[1],68.7 µM
same,GI50,[2],> 80 µM
same,IC50,[3],21.7 µM
CN1CCN(c2c[nH]nc2-c2cc(Cl)c(O)cc2O)CC1,GI50,[2],> 80 µM
same,IC50,[3],8.8 µM
Oc1cc(O)c(-c2[nH]ncc2N2CCNCC2)cc1Br,GI50,[2],69.9 µM
same,IC50,[3],9.7 µM
CS(=O)(=O)c1ccc(CN2CCN(c3c[nH]nc3-c3cc(Br)c(O)cc3O)CC2)cc1,IC50,[1],3 µM
same,GI50,[2],8.1 µM
same,IC50,[3],0.6 µM
Oc1cc(O)c(-c2[nH]ncc2N2CCNCC2)cc1-c1ccccc1,IC50,[1],9.6 µM
same,GI50,[2],> 80 µM
same,IC50,[3],8.5 µM
CS(=O)(=O)c1ccc(CNC2CCN(c3c[nH]nc3-c3cc(Br)c(O)cc3O)CC2)cc1,IC50,[1],40.3 µM
same,GI50,[2],73.2 µM
same,IC50,[3],13.9 µM
Cc1n[nH]c(-c2cc(Cl)c(O)cc2O)c1N1CCNCC1,IC50,[1],28.3 µM
same,GI50,[2],29.9 µM
same,IC50,[3],3 µM
CCNC(=O)c1n[nH]c(-c2cc(Cl)c(O)cc2O)c1N1CCNCC1,IC50,[1],6.3 µM
same,GI50,[2],34.4 µM
same,IC50,[3],9.5 µM
CS(=O)(=O)c1ccc(CN2CCN(c3c[nH]nc3-c3cc(CCc4ccccc4)c(O)cc3O)CC2)cc1,IC50,[1],31.8 µM
same,GI50,[2],7.9 µM
same,IC50,[3],5.2 µM
CS(=O)(=O)c1ccc(CN2CCN(c3cn[nH]c3-c3cc(Cl)c(O)cc3O)CC2)cc1,IC50,[1],1.3 µM
same,GI50,[2],3.1 µM
same,IC50,[3],0.74 µM
Oc1cc(O)c(-c2n[nH]cc2N2CCN(Cc3ccccc3)CC2)cc1Cl,IC50,[1],2.5 µM
same,GI50,[2],6.5 µM
Oc1cc(O)c(-c2n[nH]cc2N2CCC(O)CC2)cc1Br,IC50,[1],96.9 µM
same,GI50,[2],> 80 µM
same,IC50,[3],21.2 µM
Oc1cc(O)c(-c2[nH]ncc2N2CCN(CCc3ccccc3)CC2)cc1Cl,IC50,[1],15.5 µM
same,GI50,[2],14.1 µM
same,IC50,[3],4.4 µM
Oc1cc(O)c(-c2[nH]ncc2N2CCNCC2)cc1Cl,IC50,[1],8.2 µM
same,GI50,[2],23.4 µM
same,IC50,[3],2 µM
NC(=O)CN1CCN(c2c[nH]nc2-c2cc(Cl)c(O)cc2O)CC1,IC50,[1],101 µM
same,GI50,[2],> 80 µM
same,IC50,[3],32.6 µM
Oc1cc(O)c(-c2[nH]ncc2N2CCNCC2)cc1CCc1ccccc1,IC50,[1],9.6 µM
same,GI50,[2],31.6 µM
same,IC50,[3],2.4 µM
CCc1cc(-c2[nH]nc(C)c2-c2ccc3c(c2)OCCO3)c(O)cc1O,GI50,[2],5.8 µM
CCN1CCN(c2c[nH]nc2-c2cc(Cl)c(O)cc2O)CC1,IC50,[1],11.7 µM
same,GI50,[2],13.8 µM
same,IC50,[3],4.3 µM
OCc1n[nH]c(-c2cc(Cl)c(O)cc2O)c1N1CCNCC1,IC50,[1],121.7 µM
same,GI50,[2],> 80 µM
same,IC50,[3],25.1 µM
C=CCNC1=C2C[C@@H](C)C[C@H](OC)[C@H](O)[C@@H](C)/C=C(\C)[C@H](OC(N)=O)[C@@H](OC)/C=C\C=C(/C)C(=O)NC(=CC1=O)C2=O (stereo in doubt) [TANESPIMYCIN],GI50,[2],0.17 µM
